Data set [1] relates to human embryonic kidney 293 cells (HEK). Put plainly: Cell viability assay.
The conditions of data set [2]: 100 µM, pH 7.4.
Data set [3] in a line: Pararosaniline-based colorimetric assay for sulfur dioxide. It counts as physicochemical. The note with it: detected with pararosaniline-based colorimetric assay; 10 equiv cysteine, pH 7.4.
In data set [4] the test system is Mycobacterium tuberculosis H37Rv strain. Put plainly: Antimycobacterial activity assay (MIC, 7H11 agar). It counts as cell-based. The settings on record: Mycobacterium tuberculosis, H37RV, Mtb H37Rv.
Another data set deals with E. feacalis ATCC 29212. Put plainly: Antibacterial activity (MIC) against E. feacalis. The settings on record: Enterococcus faecalis, ATCC29212; read-out: MIC (μg/mL) E. feacalis ATCC 29212. It counts as cell-based. The text has this: (§1) The antibacterial activity of thiol mediated/activated prodrugs of SO2 i.e. 2,4-dinitrophenylsulfonamide related compounds against the gram positive pathogenic bacteria selected from the group S. aureus, E. feacalis is given herein below Table 2a.

A further data set deals with S. aureus ATCC 29213. Put plainly: Antibacterial activity (MIC) against S. aureus. The settings on record: Staphylococcus aureus, ATCC29213; read-out: MIC (μg/mL) S. aureus ATCC 29213. It counts as cell-based.
Source text: as §1

A short description of data set [5]: Cysteine-activated sulfur dioxide release, ion chromatography analysis of sulfite. The settings on record: for SO2 yield, 5 min: 5 min after treatment of compound (100 1M) with 10 equiv of cysteine in pH 7.4 phosphate buffer; for Max SO2 yield: sum of sulfite and sulfate, compound 100 μM, cysteine 10 equiv.
For data set [6] the following is noted: Table 4; values are for the amine without a DNs group; cited from earlier work.
The nature of data set [7]: Kinetics of thiol-mediated decomposition of compound (7), HPLC and ion chromatography. The settings on record: curve fitting, FIG. 3. It is filed as physicochemical. The protocol: FIG. 3 depicts kinetics of decomposition of compound (7) to produce sulfur dioxide and 2-hydroxyethylthio-2,4-dinitrobenzene (7y), where disappearance of compound (7) and appearance of (7y) was followed by HPLC analysis. Production of sulfite was monitored by ion chromatography analysis. Curve fitting afforded first order rate constant for: appearance of (7y) as 0.011 min^−1; and appearance of sulfite as 0.014 min^−1.
Alternatively, a detailed kinetic analysis of thiol-mediated decomposition and sulfite generation from compound (7) is represented in FIG. 1b, wherein compound (7) decomposed to simultaneously produce sulfur dioxide, and by-products like 4-methoxyaniline (7x) and 2-hydroxyethylthio-2,4-dinitrobenzene (7y). Further the rate determining step in the said mechanism was the step of protonation (either through proton transfer or addition of proton).

[8] abbreviates: 672 h, Table 3, inhibit 99% of bacterial growth.
Setting [9] is: Table 2b, inhibit 99% of bacterial growth.
Where [10] appears, read: Table 3, inhibit 99% of bacterial growth.
The mark [11] stands for this setting: 30 min after treatment of compound (100 1M) with 10 equiv of cysteine in pH 7.4 phosphate buffer.
Where [12] appears, read: Table 3, 30 min after treatment of compound (100 μM) with 10 equiv of cysteine in pH 7.4 phosphate buffer.

The values that follow come from patent US9079870B2, “Thiol mediated/activated prodrugs of sulfur dioxide (SO2) having anti-bacterial activity” (priority 2012, dated 2015).

Structures are written as SMILES. Converted amounts (≈) assume the structure as drawn. “And” between values parts separate entries of the source, which are not always exact repeats. Identical values can stand only once. Like-named read-outs stand apart in the source and are kept apart here.

In the case of `O=[N+]([O-])c1ccc(S(=O)(=O)NCc2ccccc2)c([N+](=O)[O-])c1` [Compound 1, N-benzyl-2,4-dinitrophenylsulfonamide], the IC50 in data set [1] (Homo sapiens, HEK293, read-out: IC50, cell viability) is 7 µM. In addition, the “selectivity (SI) toward Mtb over human embryonic kidney cells” value in data set [1] (based on the MIC and IC50) is ~50 and 47. The figures for the “t1/2 (min) of SO2 generation” value in data set [2] and in data set [2] (buffer) were approximately 2 min and approximately 2 g·min, respectively. The SO2 source entry in data set [3] was “yes”. The MIC is not above 25 µg/mL in [4] (setting [8]); 0.15 µM in data set [4] (Table 2b); approximately 0.05 µg/mL in [4] (setting [9]); 0.15 µM in [4] (Table 3); 0.05 µg/mL in data set [4] (setting [10]); more than 16 µg/mL in the data set on E. feacalis ATCC 29212. For the same molecule, the MIC in the data set with S. aureus ATCC 29213 is more than 16 µg/mL. Besides, the “SO2 yield, 5 min” value in data set [5] was found to be 83 µM. For the same molecule, the “SO2 yield in 30 min (%)” value in [5] (30 min after commencement of the reaction with cysteine (10 equiv), pH 7.4) is approximately 100%. Moreover, the “SO2 yield, 30 min” value in data set [5] (setting [11]) and in data set [5] (setting [12]) was 100 µM in each case. Also, the “Max SO2 yield” value in data set [5] (pH 7.4) worked out at 100 µM. Besides, in data set [6], the pKaH was 9.34.

In the case of `COc1ccc(NS(=O)(=O)c2ccc([N+](=O)[O-])cc2[N+](=O)[O-])cc1` [Compound 7, N-(4-methoxyphenyl) 2,4-dinitrophenylsulfonamide], in data set [2] (buffer), the “t1/2 (min) of SO2 generation” value came out at 12 min. In [3], the SO2 source entry is “yes”. The MIC was not above 25 µg/mL in data set [4] (setting [8]); 4.4 µM in data set [4] (Table 2b); 1.56 µg/mL in data set [4] (setting [9]); 4.4 µM in data set [4] (Table 3); 1.56 µg/mL in [4] (setting [10]); more than 16 µg/mL in the data set with E. feacalis ATCC 29212. For the same molecule, the MIC in the data set on S. aureus ATCC 29213 is more than 16 µg/mL. The “SO2 yield, 5 min” value in data set [5] was determined as 39 µM. The “SO2 yield, 30 min” value was 80 µM in data set [5] (setting [11]) and 79.5 µM in [5] (setting [12]). Besides, the “K (min−1), rate of sulfite release” value in data set [5] (compound (100 μM), cysteine (10 equiv), pH 7.4 phosphate buffer (20 mM)) was found to be 0.0575 min⁻¹. In [5] (pH 7.4), the “Max SO2 yield” value was 97 µM. The pKaH in [6] is recorded as 5.29. Moreover, the “first order rate constant for appearance of (7y)” value in data set [7] (HPLC analysis) was 0.011 min⁻¹. Besides, in data set [7] (ion chromatography analysis), the “first order rate constant for appearance of sulfite” value came out at 0.014 min⁻¹.

For `CN(Cc1ccccc1)S(=O)(=O)c1ccc([N+](=O)[O-])cc1[N+](=O)[O-]` [Compound 15, (N-benzyl, N-methyl) 2,4-dinitrophenylsulfonamide], the “t1/2 (min) of SO2 generation” value in data set [2] is 4 min; in data set [2] (buffer), approximately 4 g·min. The SO2 source entry in [3] is on record as “yes”. Further, the MIC in [4] (setting [8]) is not above 25 µg/mL; in [4] (Table 2b), 1.1 µM; in [4] (setting [9]), 0.4 µg/mL; in data set [4] (Table 3) it was 1.1 µM; in data set [4] (setting [10]) it was 0.4 µg/mL; in data set [4] (text to Table 2b) it was less than 1000 µg/mL. The MIC in the data set with E. feacalis ATCC 29212 was more than 16 µg/mL; in the data set on S. aureus ATCC 29213 it was 8 µg/mL (≈ 22.8 µM). Besides, the “SO2 yield, 5 min” value in [5] was 79 µM. Besides, the “SO2 yield, 30 min” value in data set [5] (setting [11]) and in [5] (setting [12]) was 100 µM in each case. Moreover, the “Max SO2 yield” value in data set [5] (pH 7.4) came to 100 µM. Besides, in data set [6], the pKaH is 9.58.
